Legend:
[1] = molecular target: Beta Secretase enzyme (BACE) (Homo sapiens, UniProt P56817); experiment: In vitro enzymatic BACE FRET (fluorescence resonance energy transfer) assay; assay type: biochemical; conditions: average IC50, enzyme assay; read-out: BACE 1 FRET assay
Method in brief: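 Cleavage of a 50 nM fluorophore/quencher peptide FRET substrate by BACE for 1 h in 0.05 M acetate pH 4.2, 10% DMSO, 100 uM genapol. Reaction stopped with Tris to neutral pH before fluorescence reading.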

[2] = system: Aβ40 in conditioned medium of cells stably expressing Amyloid Precursor Protein (APP); experiment: In vitro BACE cell-based assay (Aβ40 in conditioned medium, sandwich ELISA); conditions: Homo sapiens, HEK293, average IC50; read-out: HEK cell assay
Method in brief: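 Quantification relied on pAb40/6E10 sandwich ELISA with Europium fluorescence counts, and IC50 was fitted versus concentration.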

Beta Secretase enzyme (BACE), sequence (P56817 46-501, species assumed): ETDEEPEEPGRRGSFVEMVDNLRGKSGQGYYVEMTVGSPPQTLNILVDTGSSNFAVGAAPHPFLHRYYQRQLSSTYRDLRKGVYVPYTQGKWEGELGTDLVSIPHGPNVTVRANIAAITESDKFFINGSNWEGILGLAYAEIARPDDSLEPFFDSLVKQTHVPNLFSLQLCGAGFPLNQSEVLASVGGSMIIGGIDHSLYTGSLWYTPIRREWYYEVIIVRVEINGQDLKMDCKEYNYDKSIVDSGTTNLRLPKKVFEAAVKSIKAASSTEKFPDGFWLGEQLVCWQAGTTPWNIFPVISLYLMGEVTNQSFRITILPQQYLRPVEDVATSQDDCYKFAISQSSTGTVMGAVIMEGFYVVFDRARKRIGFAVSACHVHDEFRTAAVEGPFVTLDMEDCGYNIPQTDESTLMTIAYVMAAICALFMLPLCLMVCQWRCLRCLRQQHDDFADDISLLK

SMILES | IC50 [1] | IC50 [2]
CC1(C)C=C(c2cnc3c(c2)[C@]2(CSC(N)=N2)c2cc(-c4ccc(F)c(C#N)c4)ccc2O3)CCO1 [Example 784, 5-((5S)-2′-amino-3-(6,6-dimethyl-3,6-dihydro-2H-pyran-4-yl)spiro[chromeno[2,3-b]pyridine-5,4′-[1,3]thiazol]-7-yl)-2-fluorobenzonitrile] | 1.4 nM | 15 nM
CC1(C#Cc2cnc3c(c2)[C@]2(CSC(N)=N2)c2cc(-c4ccc(F)c(C#N)c4)ccc2O3)COC1 [Example 785, 5-((5S)-2′-amino-3-((3-methyl-3-oxetanyl)ethynyl)spiro[chromeno[2,3-b]pyridine-5,4′-[1,3]thiazol]-7-yl)-2-fluorobenzonitrile] | 1.6 nM | 13 nM
N#Cc1cc(-c2ccc3c(c2)[C@@]2(COC(N)=N2)c2cc(-c4ccnc(F)c4)cnc2O3)ccc1F [Example 786, 5-((5S)-2′-amino-3-(2-fluoro-4-pyridinyl)spiro[chromeno[2,3-b]pyridine-5,4′-[1,3]oxazol]-7-yl)-2-fluorobenzonitrile] | 10.5 nM | 41 nM
CC1(C#Cc2cnc3c(c2)[C@]2(COC(N)=N2)c2cc(-c4ccc(F)c(C#N)c4)ccc2O3)COC1 [Example 787, 5-((5S)-2′-amino-3-((3-methyl-3-oxetanyl)ethynyl)spiro[chromeno[2,3-b]pyridine-5,4′-[1,3]oxazol]-7-yl)-2-fluorobenzonitrile] | 5.6 nM | 44 nM
NC1=N[C@@]2(CS1)c1cc(-c3cnccc3F)ccc1Oc1ncc(-c3cccnc3F)cc12 [Example 788, (5S)-3-(2-fluoro-3-pyridinyl)-7-(4-fluoro-3-pyridinyl)spiro[chromeno[2,3-b]pyridine-5,4′-[1,3]thiazol]-2′-amine] | 5 nM | 59 nM
CC#Cc1cncc(-c2ccc3c(c2)[C@@]2(CSC(N)=N2)c2cc(-c4ncccn4)cnc2O3)c1 [Example 789, (5S)-7-(5-(1-propyn-1-yl)-3-pyridinyl)-3-(2-pyrimidinyl)spiro[chromeno[2,3-b]pyridine-5,4′-[1,3]thiazol]-2′-amine] | 2.2 nM | 9 nM
N#Cc1cccc(-c2ccc3c(c2)[C@@]2(CSC(N)=N2)c2cc(C4CCOCC4)cnc2O3)c1F [Example 790, 3-((5S)-2′-amino-3-(tetrahydro-2H-pyran-4-yl)spiro[chromeno[2,3-b]pyridine-5,4′-[1,3]thiazol]-7-yl)-2-fluorobenzonitrile] | 14.5 nM | 97 nM
NC1=N[C@@]2(CS1)c1cc(-c3cccnc3F)ccc1Oc1c(F)cc(C3=CCOCC3)cc12 [Example 791, (4S)-2′-(3,6-dihydro-2H-pyran-4-yl)-4′-fluoro-7′-(2-fluoro-3-pyridinyl)spiro[1,3-thiazole-4,9′-xanthen]-2-amine] | 0.1 nM | 10 nM
NC1=N[C@@]2(CO1)c1cc(-c3cccnc3)ccc1Oc1c(F)cc(N3CCCC3=O)cc12 [Example 792, 1-((4S)-2-amino-4′-fluoro-7′-(3-pyridinyl)spiro[1,3-oxazole-4,9′-xanthen]-2′-yl)-2-pyrrolidinone] | 5.1 nM | 30 nM
CC1(COc2cc(F)c3c(c2)[C@@]2(CSC(N)=N2)c2cc(-c4cccnc4F)ccc2O3)COC1 [Example 793, (4R)-4′-fluoro-7′-(2-fluoro-3-pyridinyl)-2′-((3-methyl-3-oxetanyl)methoxy)spiro[1,3-thiazole-4,9′-xanthen]-2-amine] | 180 nM | 4810 nM
CC1(COc2cc(F)c3c(c2)[C@]2(CSC(N)=N2)c2cc(-c4cccnc4F)ccc2O3)COC1 [Example 794, (4S)-4′-fluoro-7′-(2-fluoro-3-pyridinyl)-2′-((3-methyl-3-oxetanyl)methoxy)spiro[1,3-thiazole-4,9′-xanthen]-2-amine] | 0.2 nM | 6 nM
NC1=N[C@@]2(CS1)c1cc(-c3cccnc3)ccc1Oc1c(F)cc(C3=CCCOC3)cc12 [Example 795, (4S)-2′-(5,6-dihydro-2H-pyran-3-yl)-4′-fluoro-7′-(3-pyridinyl)spiro[1,3-thiazole-4,9′-xanthen]-2-amine] | 0.5 nM | 10 nM

Reference: patent US8883782B2, “Spiro-tetracyclic ring compounds as beta-secretase modulators and methods of use” (Amgen Inc., priority 2010, dated 2014)
